This is an account of results in patent publication US10155728B2, “Compounds for treatment of cancer” (GTX INC., priority 2014, dated 2018).

Where “and” joins values, the source holds several entries; their conditions need not be identical. Equal entries are not always repeated. Where two headings read alike, the source gives them in different places.

A short description of data set [1]: Microsomal stability assay, human. The data set is classed as in vitro ADME. Particulars: for T1/2: human liver microsomes, 0.5 μM. On the procedure:
(§1) Microsomal Stability Assay. […] For metabolite identification, the reaction mixture was incubated for 2 h with 50 μM test compound concentration under the previously described conditions. The supernatants were analyzed using a Water Xevo G2-S high resolution mass spectrometer.
(In general: Microsomes from liver hold many membrane-bound enzymes, among them those of drug oxidation.)

Data set [2] can be described thus: Metabolite identification in liver microsomes. The data set is classed as in vitro ADME. Particulars: 50 μM, 2 h incubation, high resolution MS. On the procedure: as §1
We utilized a high resolution mass spectrometer for the identification of the metabolites with a mass error of less than 2 ppm generally. The detailed information regarding the mass spectrum and the chromatogram of each of the metabolites are presented in the supplementary materials. […] M4 (identified by mass spectrum 388.12 [M+1]) was the product that resulted from ketone reduction and it was further hydroxylated to M5 (identified by mass spectrum 404.12 [M+1]) at a position that was unidentifiable due to limited information. […] M7 (deamination) (identified by mass spectrum 370.11 [M+1]) was a minor product. […] M9 (identified by mass spectrum 386.15 [M+1]) and M10 (identified by mass spectrum 416.16 [M+1]) had more than one possible structure as indicated in the chromatograms. For 7 (FIG. 11), various metabolites including 0-demethylation (M12) (identified by mass spectrum 387.15 [M+1]), mono-hydroxylation (M14) (identified by mass spectrum 417.16 [M+1]), O-demethylation followed by mono-hydroxylation (M11) (identified by mass spectrum 403.14 [M+1]), and dihydroxylation (M13) (identified by mass spectrum 433.15 [M+1]) were detected.

Data set [3] is described as follows: Microsomal stability assay, rat. The data set is classed as in vitro ADME. Particulars: for T1/2: rat liver microsomes, 0.5 μM. The procedure:
as §1

Data set [4] deals with melanoma and prostate cancer cell lines. Briefly: SRB cytotoxicity assay, melanoma and prostate cancer cell lines. It counts as cell-based. Particulars: SRB 96 h. In general terms: In SRB staining, fixed cells bind dye roughly in proportion to their protein.
Procedure: (§2) Cell Culture and Cytotoxicity Assay of Prostate Cancer and Melanoma. […] Melanoma cells were cultured in DMEM, supplemented with 5% FBS, 1% antibiotic/antimycotic mixture (Sigma-Aldrich, Inc., St. Louis, Mo., USA) and bovine insulin (5 μg/ml; Sigma-Aldrich).
A short description of data set [5]: Microsomal stability assay, mouse. It counts as in vitro ADME. Particulars: for T1/2: mouse liver microsomes, 0.5 μM. The procedure: as §1
The next data set has as its target T1, Bovine brain tubulin (Bos taurus, UniProt P81947+Q6B856).
T1 construct: Bovine brain tubulin (0.4 mg, >97% pure) (Cytoskeleton, Denver, Colo.); purchased Cytoskeleton, Denver, Colo; host or cells: bovine brain tissue
Briefly: In vitro tubulin polymerization assay. Particulars: for inhibition at 5 µM / inhibition at 10 µM: after 20 min incubation, compared to vehicle; for Inhibition of tubulin polymerization relative to colchicine (in words): 5 and 10 μM. It counts as biochemical. The procedure:
In Vitro Tubulin Polymerization Assay. […] […] The spectrophotometer was set at 37° C. for tubulin polymerization. […] DMSO was used as a blank control.

The subject of another data set is A375 cells. Briefly: SRB cytotoxicity assay, A375 melanoma cells. It counts as cell-based. Particulars: for IC50: SRB assay after 96 h of treatment, read-out: IC50 against A375 cells.
Another data set concerns LNCaP cells. Briefly: SRB cytotoxicity assay, LNCaP prostate cancer cells. Particulars: androgen sensitive prostate cancer LNCaP cells. The data set is classed as cell-based, human.
Data set [6] is described as follows: Microsomal stability, liver microsomes over tested species. The data set is classed as in vitro ADME. On the procedure:
as §1

Data set [7] has as its system K562 human leukemia cells. Particulars: read-out: IC50 against K562 human leukemia cells; cited from earlier work.

Usually inhibition stands for how much of the control response was suppressed. A high value points to a response far below the control. For orientation: IC50 means the concentration that gives 50% inhibition.

T1 sequence (Q6B856 whole entry): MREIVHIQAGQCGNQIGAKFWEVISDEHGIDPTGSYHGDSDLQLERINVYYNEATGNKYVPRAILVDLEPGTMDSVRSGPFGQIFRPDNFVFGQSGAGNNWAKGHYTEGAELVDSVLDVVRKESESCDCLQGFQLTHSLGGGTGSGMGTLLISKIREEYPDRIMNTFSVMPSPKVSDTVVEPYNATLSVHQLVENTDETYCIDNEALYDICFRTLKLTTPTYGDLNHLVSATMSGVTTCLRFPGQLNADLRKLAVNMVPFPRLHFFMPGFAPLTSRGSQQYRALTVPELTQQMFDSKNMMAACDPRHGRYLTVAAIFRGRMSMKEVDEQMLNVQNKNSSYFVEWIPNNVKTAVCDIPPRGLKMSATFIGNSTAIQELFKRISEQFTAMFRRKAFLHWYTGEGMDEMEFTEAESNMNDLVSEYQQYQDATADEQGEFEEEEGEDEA
T1 sequence (P81947 whole entry): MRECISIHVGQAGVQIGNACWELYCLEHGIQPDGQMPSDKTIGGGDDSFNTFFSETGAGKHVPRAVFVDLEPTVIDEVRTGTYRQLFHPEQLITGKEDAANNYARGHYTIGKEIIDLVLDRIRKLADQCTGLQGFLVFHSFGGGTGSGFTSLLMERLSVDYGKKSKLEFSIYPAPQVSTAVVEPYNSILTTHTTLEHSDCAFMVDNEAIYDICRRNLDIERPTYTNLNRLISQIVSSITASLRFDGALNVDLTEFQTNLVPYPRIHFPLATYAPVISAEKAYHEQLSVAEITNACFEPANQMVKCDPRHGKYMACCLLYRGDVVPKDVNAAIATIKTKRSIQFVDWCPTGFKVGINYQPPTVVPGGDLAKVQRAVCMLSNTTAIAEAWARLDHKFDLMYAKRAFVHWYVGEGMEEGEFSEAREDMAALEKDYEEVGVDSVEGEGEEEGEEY
Procedure for A375 cells: as §2
Procedure for LNCaP cells: as §2

Regarding `COc1cc(-c2cccc3[nH]c(-c4c[nH]c5ccccc45)nc23)cc(OC)c1OC` [Compound 4, 2-(1H-Indol-3-yl)-4-(3,4,5-trimethoxyphenyl)-1H-benzo[d]imidazole], in data set [1], the T1/2 is reported as 50.7 ± 1.2 min. The half-life at 0.5 μM in data set [1] (human, pooled liver microsomes, pH 7.4, human liver microsomes) was 51 min; in [3] (pH 7.4, rat liver microsomes), 72.3 ± 4.6 min; in [5] (pH 7.4, mouse liver microsomes) it was 53.5 ± 2.4 min. In addition, in data set [2], the “Major metabolites / metabolic pathway” value is “O-demethylation (M9) and mono-hydroxylation (M10)”. Moreover, the “Antiproliferative activity (in words)” value in data set [4] is reported as “comparable potency”. The molecule further had an inhibition at 5 µM at Bovine brain tubulin of 30%. The molecule further gave an inhibition at 10 µM against Bovine brain tubulin of 60%. The “Inhibition of tubulin polymerization relative to colchicine (in words)” value on Bovine brain tubulin is “stronger inhibition than colchicine”.

Take `COc1cc(-c2nccc3[nH]c(-c4ccc5[nH]ccc5c4)nc23)cc(OC)c1OC` [Compound 7, 2-(1H-Indol-5-yl)-4-(3,4,5-trimethoxyphenyl)-1H-imidazo[4,5-c]pyridine]: the T1/2 in data set [1] was 45 min and 45.3 ± 2.0 min; in [3] it was 30.4 ± 1.9 min; in data set [5] it was 19.7 ± 0.7 min. For the same molecule, the “Major metabolites / metabolic pathway” value in [2] is reported as “formed very evenly with similar relative amount”. In addition, in data set [4], the “Antiproliferative activity (in words)” value is on record as “increased potency”. Further, the inhibition at 5 µM against Bovine brain tubulin was ~33%. Moreover, on Bovine brain tubulin, the inhibition at 10 µM is ~81%. Also, the “Inhibition of tubulin polymerization relative to colchicine (in words)” value at Bovine brain tubulin is recorded as “stronger inhibition than colchicine”. Further, the “IC50 improvement compared to 10 and 4” value in the data set with A375 cells (melanoma A375 cells) and with LNCaP cells was “at least 5 fold” in each case.

Consider `COc1cc(C(=O)c2csc(-c3ccccc3)n2)cc(OC)c1OC` [Compound 10, reference compound], for which the results for the T1/2 in [1], in data set [3] and in data set [5] were 17 min, 31 min and <<5 min, respectively. In the data set on A375 cells, the half-maximal inhibitory concentration (IC50) came to 28 nM.

As for `COc1cc(C(=O)c2csc(-c3ccccc3)n2)cc(OC)c1OC(=O)CCl` [Compound 12, 2,6-Dimethoxy-4-(2-phenylthiazole-4-carbonyl)phenyl 2-chloroacetate], the “Antiproliferative activity (in words)” value in data set [4] is “dropped significantly”.

In the case of `COCOc1c(OC)cc(C(=O)c2csc(-c3ccccc3)n2)cc1OC` [Compound 15, (3,5-Dimethoxy-4-(methoxymethoxy)phenyl)(2-phenylthiazol-4-yl)methanone], the T1/2 worked out at 7.8 ± 0.3 min in data set [1], 9.7 ± 0.4 min in data set [3] and 4.0 ± 0.3 min in [5]. Besides, in [2], the “Major metabolites / metabolic pathway” value is listed as “removal of the MOM group to form M1”. Besides, the “Antiproliferative activity (in words)” value in [4] was “improved activity”. Besides, in data set [6] (any of the tested liver microsomes), the “Metabolic stability (in words)” value is recorded as “did not improve its metabolic stability”. The half-life at 0.5 μM in data set [6] (pH 7.4, human, mouse, rat liver microsomes, read-out: T1/2 over tested species liver microsomes) is < 10 min. The IC50 in the data set with A375 cells (Homo sapiens, A-375) worked out at 20 nM.

In the case of `COc1cc(C(=O)c2csc(-c3ccccc3)n2)cc(OC)c1OCCN1C(=O)c2ccccc2C1=O` [Compound 17, 2-(2-(2,6-Dimethoxy-4-(2-phenylthiazole-4-carbonyl)phenoxy)ethyl)isoindoline-1,3-dione], in data set [4], the “Antiproliferative activity (in words)” value is reported as “micromolar range potency”.

As to `COc1cc(C(=O)c2c[nH]c(Nc3ccccc3)n2)cc(OC)c1OC` [Compound 27, (2-(Phenylamino)-1H-imidazol-4-yl)(3,4,5-trimethoxyphenyl)methanone], the “Antiproliferative activity (in words)” value in data set [4] was “did not demonstrate any activity”.

Take `COc1cc(C(=O)c2csc(Nc3ccc4[nH]ccc4c3)n2)cc(OC)c1OC` [Compound 33, (2-((1H-Indol-5-yl)amino)thiazol-4-yl)(3,4,5-trimethoxyphenyl)methanone]: the “Antiproliferative activity (in words)” value in data set [4] was “excellent growth inhibition”. For the same molecule, the “IC50 change compared to PAT” value in the data set on prostate cancer cells was 2-3 fold.

`COc1ccc(/C=C(\C)C(=O)c2cc(OC)c(OC)c(OC)c2)cc1O` [SD400]: in data set [7], the half-inhibitory concentration (IC50) is 0.21 nM.
